As a reminder, the IC50 is the concentration that gives 50% inhibition.

The assay concerns the target T1, recombinant human FLAP protein (Homo sapiens, UniProt P20292).
T1 construct: made in house; host or cells: Sf9 insect cells (membrane fraction, 100,000 x g pellet)
T1 sequence (P20292 1-161): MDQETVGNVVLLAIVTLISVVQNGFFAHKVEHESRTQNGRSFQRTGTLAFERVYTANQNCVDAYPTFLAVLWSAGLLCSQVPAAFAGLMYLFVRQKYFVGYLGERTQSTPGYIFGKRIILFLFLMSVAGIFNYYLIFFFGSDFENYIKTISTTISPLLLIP
Kind of assay: FLAP binding assay, displacement of iodinated (125I) FLAP inhibitor, Scintillation Proximity Assay format. The following applies: [125I]L-691,831 probe, membrane protein from sf9 cells; read-out: hFLAP binding IC50. As for the experimental part:
Compounds are assessed for the ability to bind to FLAP in a binding assay that measures compound-specific displacement of an iodinated (^125I) FLAP inhibitor via a Scintillation Proximity Assay format (adapted from S. Charleson et al., Mol. Pharmacol., 1992, 41, 873-879).
Cell pellets produced from sf9 insect cells expressing recombinant human FLAP protein are resuspended in buffer A [15 mM Tris-HCl (pH 7.5), 2 mM MgCl2, 0.3 mM EDTA, 1 mM PMSF]. The cells are lysed with a Dounce homogenizer and the material is centrifuged at 10,000×g for 10 minutes. The supernatant is then collected and centrifuged at 100,000×g for 60 minutes. To prepare membrane protein for an assay, an aliquot of the 100,000×g pellet is resuspended in 1 ml of buffer A, Dounce homogenized, and finally subjected to polytron mixing (30 seconds). Membrane protein (25 μl, 5 μg) is mixed with WGA SPA beads (Amersham) and stirred for 1 h. To an assay plate (Perkin Elmer FlexiPlate) is added 25 μl of test compound prepared in Binding buffer [100 mM Tris (pH 7.5), 140 mM NaCl, 5% glycerol, 2 mM EDTA, 0.5 mM TCEP, 0.05% Tween 20], 25 μl of [^125I]L-691,831 (an iodinated analog of MK-591, Charleson et al. Mol. Pharmacol., 41, 873-879, 1992) and finally 50 μl of the bead/protein mixture. (final concentrations: beads, 200 μg/well; protein, 5 μg/well; [^125I] probe, 0 08 nM/well (17 nCi/well). The plates are shaken for 2 h before reading on a Microbeta plate reader. Non-specific binding is determined by the addition of 10 μM cold L-691,831 compound.
(In general: In a scintillation proximity assay essentially only radioactivity close to the scintillant gives light.)

For `COc1ccc(-n2cccn2)c(-c2nc3cc(-c4cnc5[nH]ccc5c4)ccc3n2C(C)(C)C)c1` [1-tert-Butyl-2-(5-methoxy-2-pyrazol-1-yl-phenyl)-5-(1H-pyrrolo[2,3-b]pyridin-5-yl)-1H-benzimidazole], the IC50 was determined as 1.1 nM.
Take `Cc1ncnn1-c1ccccc1-c1nc2cc(-c3cnc(N)nc3)ccc2n1C(C)(C)C` [5-{1-tert-Butyl-2-[2-(5-methyl-1,2,4-triazol-1-yl)-phenyl]-1H-benzimidazol-5-yl}-pyrimidin-2-ylamine]: the IC50 turned out to be 3.3 nM.
To `Cc1nc(-c2ccccc2-c2nc3cc(-c4cnc(N)nc4)ccc3n2C(C)(C)C)n(C)n1` [5-{1-tert-Butyl-2-[2-(2,5-dimethyl-2H-1,2,4-triazol-3-yl)-phenyl]-1H-benzimidazol-5-yl}-pyrimidin-2-ylamine] belongs 1.8 nM; to `CC(C)(COc1ccc(-c2nc3cc(-c4cnc(N)nc4)ccc3n2C(C)(C)C)c(-n2cncn2)c1)C(=O)O` [3-{4-[5-(2-Amino-pyrimidin-5-yl)-1-tert-butyl-1H-benzoimidazol-2-yl]-3-[1,2,4]triazol-1-yl-phenoxy}-2,2-dimethyl-propionic acid], 4 nM; to `CC(C)(C)n1c(-c2ccccc2-n2cncn2)nc2cc(-c3cnc(N)nc3)ccc21`, 2.7 nM.
Under `Cc1ccc(-n2cnc(C)n2)c(-c2nc3cc(-c4cnc(N)nc4)ccc3n2C(C)(C)C)c1` stands 1.7 nM.
To `CC(C)(C)n1c(-c2cc(C(F)(F)F)ccc2-n2cncn2)nc2cc(-c3cnc(N)nc3)ccc21` belongs 2.4 nM; to `COc1ccc(-c2csc(C)n2)c(-c2nc3cc(-c4cnc(N)nc4)ccc3n2C(C)(C)C)c1` [5-{1-tert-Butyl-2-[5-methoxy-2-(2-methyl-thiazol-4-yl)-phenyl]-1H-benzimidazol-5-yl}-pyrimidin-2-ylamine], 1.7 nM; to `CC(C)NC(=O)Oc1ccc(-n2cncn2)c(-c2nc3cc(-c4cnc(N)nc4)ccc3n2C(C)(C)C)c1` [Isopropyl-carbamic acid 3-[5-(2-amino-pyrimidin-5-yl)-1-tert-butyl-1H-benzimidazol-2-yl]-4-1,2,4-triazol-1-yl-phenyl ester], 1.5 nM.
For `CC(C)COC(=O)c1ncn(-c2ccc(C#N)cc2-c2nc3cc(-c4cnc(N)nc4)ccc3n2C(C)(C)C)n1` [1-{2-[5-(2-Amino-pyrimidin-5-yl)-1-tert-butyl-1H-benzoimidazol-2-yl]-4-cyano-phenyl}-1H-[1,2,4]triazole-3-carboxylic acid isobutyl ester], the IC50 was determined as 12.4 nM.
As for `Cc1ncnn1-c1ccc(Cl)cc1-c1nc2cc(-c3cnc(N)nc3)ccc2n1C(C)(C)C` [5-{1-tert-butyl-2-[5-chloro-2-(5-methyl-1,2,4-triazol-1-yl)-phenyl]-1H-benzimidazol-5-yl}-pyrimidin-2-ylamine], the IC50 was 6.9 nM.
With `CCCCC/C(=C\C(=O)O)c1ccc(-n2cncn2)c(-c2nc3cc(-c4cnc(N)nc4)ccc3n2C(C)(C)C)c1` [(E)-3-{3-[5-(2-Amino-pyrimidin-5-yl)-1-tert-butyl-1H-benzoimidazol-2-yl]-4-[1,2,4]triazol-1-yl-phenyl}-oct-2-enoic acid], the IC50 is 6 nM.
To `Cc1ccn(-c2ccc(C#N)cc2-c2nc3cc(-c4cnc(N)nc4)ccc3n2C(C)(C)C)n1` [3-[5-(2-Amino-pyrimidin-5-yl)-1-tert-butyl-1H-benzoimidazol-2-yl]-4-(3-methyl-pyrazol-1-yl)-benzonitrile] belongs 1.8 nM.
To `COc1ccc(-c2nc(C)ns2)c(-c2nc3cc(-c4cnc(N)nc4)ccc3n2C(C)(C)C)c1` [5-{1-tert-Butyl-2-[5-methoxy-2-(3-methyl-1,2,4-thiadiazol-5-yl)-phenyl]-1H-benzimidazol-5-yl}-pyrimidin-2-ylamine] belongs 4.3 nM.
Take `CC(C)(Oc1ccc(-c2nc3cc(-c4cnc(N)nc4)ccc3n2C(C)(C)C)c(-n2cncn2)c1)C(=O)O` [2-{4-[5-(2-Amino-pyrimidin-5-yl)-1-tert-butyl-1H-benzoimidazol-2-yl]-3-[1,2,4]triazol-1-yl-phenoxy}-2-methyl-propionic acid]: the half-inhibitory concentration (IC50) was 5.5 nM.
To `COc1ccc(-n2cnc(C)n2)c(-c2nc3cc(-c4cnc(N)nc4)ccc3n2C(C)(C)C)c1` [5-{1-tert-Butyl-2-[5-methoxy-2-(3-methyl-1,2,4-triazol-1-yl)-phenyl]-1H-benzimidazol-5-yl}-pyrimidin-2-ylamine] belongs 2.2 nM.
Under `CC(C)(C)n1c(-c2cc(C#N)ccc2-n2cnc(-c3ccccc3Cl)n2)nc2cc(-c3cnc(N)nc3)ccc21` [3-[5-(2-Amino-pyrimidin-5-yl)-1-tert-butyl-1H-benzoimidazol-2-yl]-4-[3-(2-chloro-phenyl)-[1,2,4]triazol-1-yl]-benzonitrile] stands 4.4 nM; under `CC(C)(C)n1c(-c2cc(Cl)ccc2-n2cccn2)nc2cc(-c3cnc(N)nc3)ccc21` [5-[1-tert-Butyl-2-(5-chloro-2-pyrazol-1-yl-phenyl)-1H-benzimidazol-5-yl]-pyrimidin-2-ylamine], 1.3 nM; under `COCc1ccc(-n2cncn2)c(-c2nc3cc(-c4cnc(N)nc4)ccc3n2C(C)(C)C)c1` [5-[1-tert-Butyl-2-(5-methoxymethyl-2-[1,2,4]triazol-1-yl-phenyl)-1H-benzoimidazol-5-yl]-pyrimidin-2-ylamine], 13.9 nM.
For the molecule `CCNC(=O)Oc1ccc(-n2cncn2)c(-c2nc3cc(-c4cnc(N)nc4)ccc3n2C(C)(C)C)c1` [Ethyl-carbamic acid 3-[5-(2-amino-pyrimidin-5-yl)-1-tert-butyl-1H-benzimidazol-2-yl]-4-1,2,4-triazol-1-yl-phenyl ester], the IC50 is 1.1 nM.
Under `CC(C)(C)n1c(-c2ccc(Cl)cc2-n2cncn2)nc2cc(-c3cnc(N)nc3)ccc21` [5-[1-tert-Butyl-2-(4-chloro-2-1,2,4-triazol-1-yl-phenyl)-1H-benzimidazol-5-yl]-pyrimidin-2-ylamine] stands 1.7 nM.
To `Cc1ncn(-c2ccccc2-c2nc3cc(-c4cnc(N)nc4)ccc3n2C(C)(C)C)n1` [5-{1-tert-Butyl-2-[2-(3-methyl-1,2,4-triazol-1-yl)-phenyl]-1H-benzimidazol-5-yl}-pyrimidin-2-ylamine] belongs 1.6 nM; to `CCc1ccc(-n2cncn2)c(-c2nc3cc(-c4cnc(N)nc4)ccc3n2C(C)(C)C)c1` [5-[1-tert-Butyl-2-(5-ethyl-2-1,2,4-triazol-1-yl-phenyl)-1H-benzimidazol-5-yl]-pyrimidin-2-ylamine], 2.4 nM; to `CC(C)(COc1ccc(-n2cncn2)c(-c2nc3cc(-c4cnc(N)nc4)ccc3n2C(C)(C)C)c1)C(=O)O` [3-{3-[5-(2-Amino-pyrimidin-5-yl)-1-tert-butyl-1H-benzimidazol-2-yl]-4-1,2,4-triazol-1-yl-phenoxy}-2,2-dimethyl-propionic acid], 5.9 nM.
Take `Cc1ccn(-c2ccc(Cl)cc2-c2nc3cc(-c4cnc(N)nc4)ccc3n2C(C)(C)C)n1` [5-{1-tert-Butyl-2-[5-chloro-2-(3-methyl-pyrazol-1-yl)-phenyl]-1H-benzimidazol-5-yl}-pyrimidin-2-ylamine]: the IC50 was found to be 0.71 nM.
For the molecule `Cc1noc(-c2ccccc2-c2nc3cc(-c4cnc5[nH]ccc5c4)ccc3n2C(C)(C)C)n1` [1-tert-Butyl-2-[2-(3-methyl-1,2,4-oxadiazol-5-yl)-phenyl]-5-(1H-pyrrolo[2,3-b]pyridin-5-yl)-1H-benzimidazole], the IC50 came to 1.2 nM.
To `Cc1ccc(-n2cncn2)c(-c2nc3cc(-c4cnc(N)nc4)ccc3n2C(C)(C)C)c1` belongs 1.6 nM; to `COC(=O)c1ccc(-n2cncn2)c(-c2nc3cc(-c4cnc(N)nc4)ccc3n2C(C)(C)C)c1` [3-[5-(2-Amino-pyrimidin-5-yl)-1-tert-butyl-1H-benzoimidazol-2-yl]-4-[1,2,4]triazol-1-yl-benzoic acid methyl ester], 2.7 nM; to `Cc1nc(C)n(-c2ccc(C#N)cc2-c2nc3cc(-c4cnc(N)nc4)ccc3n2C(C)(C)C)n1` [3-[5-(2-Amino-pyrimidin-5-yl)-1-tert-butyl-1H-benzoimidazol-2-yl]-4-(3,5-dimethyl-[1,2,4]triazol-1-yl)-benzonitrile], 2.5 nM.
As for `Cc1ncn(-c2ccc(F)cc2-c2nc3cc(-c4cnc(N)nc4)ccc3n2C(C)(C)C)n1` [5-{1-tert-Butyl-2-[5-fluoro-2-(3-methyl-1,2,4-triazol-1-yl)-phenyl]-1H-benzimidazol-5-yl}-pyrimidin-2-ylamine], the IC50 came to 1.4 nM.
Take `COCCn1cnc(-c2ccccc2-c2nc3cc(-c4cnc(N)nc4)ccc3n2C(C)(C)C)n1` [5-(1-tert-Butyl-2-{2-[1-(2-methoxy-ethyl)-1H-[1,2,4]triazol-3-yl]-phenyl}-1H-benzoimidazol-5-yl)-pyrimidin-2-ylamine]: the IC50 worked out at 3.3 nM.

The values are drawn from patent US8420655B2, “Benzimidazole inhibitors of leukotriene production” (Boehringer Ingelheim International GmbH, priority 2009, dated 2013).
